Measurements: PMC8626775, “Anti-schistosomal activities of quinoxaline-containing compounds: From hit identification to lead optimisation” (European Journal of Medicinal Chemistry, 2021)
Where “and” joins values, the source holds several entries; their conditions need not be identical. Equal entries are not always repeated. Where two headings read alike, the source gives them in different places.

Key:
[1] = system: S. mansoni schistosomula; experiment: S. mansoni schistosomula high-throughput phenotype and motility screen (Roboworm), 72 h; assay type: cell-based, Schistosoma mansoni
How it was run: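 Newly transformed schistosomula (S. mansoni PR-1, mechanically transformed cercariae), 120 per well, exposed to compounds at a single concentration or two-fold titrations for 72 h at 37 °C, 5% CO2.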

[2] = system: S. mansoni adult worms; experiment: S. mansoni adult worm motility screen (WormassayGP2), 72 h; assay type: cell-based, Schistosoma mansoni; conditions: for EC50: Schistosoma mansoni
From the text: (§1) Mice (Mus musculus HsdOLa:TO - Tuck Ordinary; Envigo, UK) were used for the mammalian-specific propagation of the S. mansoni life cycle. Experimental animals were infected with 4000 or 180 S. mansoni cercariae/mouse and perfused three- or seven-weeks post-infection to obtain S. mansoni juvenile or adult worms, respectively. Preparation steps following perfusion have been described previously. Briefly, the parasite material was washed three times with pre-warmed adult worm media (DMEM (Gibco, Paisley, UK) supplemented with 10% (v/v) Fetal Calf Serum (FCS, Gibco, Paisley, UK), 1% (v/v) L-glutamine (Gibco, Paisley, UK) and an antibiotic mixture (150 Units/ml penicillin and 150 μg/ml streptomycin; Gibco, UK)) to remove residual host contamination and incubated in a humidified environment containing 5% CO2 at 37 °C for at least 1 h.
(§2) For the evaluation of anti-schistosomal activity on the adult stage of the parasite, 7-wk old worms were transferred into 48 well tissue culture plates (1–3 worm pairs/well, in duplicate). […] DMSO (0.5%) and praziquantel (10 μM in 0.5% DMSO) were also included as negative and positive control treatments. Treated adult worms were incubated for 72 h in a humidified environment containing 5% CO2 at 37 °C. Parasite motility after compound treatment was assessed by a digital image processing-based system (WormassayGP2), modified after Wormassay. Following compound-parasite co-incubation, eggs were collected, fixed in formalin (10% v/v formaldehyde) and enumerated aiming to collect further information on any compound-induced effects on parasite fecundity and IVLE production.

[3] = system: HepG2 cells; experiment: HepG2 MTT cytotoxicity assay; conditions: for Selectivity Index (SI) Adult worms: HepG2 CC50 versus adult worm EC50; for Selectivity Index (SI) Somula: HepG2 CC50 versus schistosomula EC50; for CC50: Table 2, MTT
Description: (§3) Initially the cells were handled under sterile conditions and grown at 37 °C in a humidified atmosphere containing 5% CO2. Cytotoxicity was evaluated by way of a 3-(4, 5- dimethylthiazol-2-yl)-2,5-diphenyl tetrazolium bromide (MTT) assay as previously described. The cells were counted in a dual chamber counting slide using the BIORAD TC-10 Automated cell counter, seeded in a 96-well plate (Fisher Scientific, Loughborough, UK) at a density of 2 × 10^4 cells/well and incubated in an atmosphere of 5% CO2 at 37 °C. […] The absorbance readings (at 570 nm) of the soluble formazan crystals were recorded using PolarStar Omega plate reader (BMG-Labtech). […] The latter was used to calculate the selectivity index (SI) of the compounds presented herein.

[4] = system: adult S. japonicum male worms; experiment: In vitro screening of S. japonicum adults at 100 nM (WormAssay motility, descriptors, severity score); assay type: cell-based, Schistosoma japonicum
Description: (§4) For each species, parasite recovery involved reverse perfusion of the hepatic portal and mesenteric system using DMEM (Fisher Scientific). Parasites were washed six times with Basch 169 medium supplemented with 100 U/ml penicillin and 100 μg/ml streptomycin before manually distributing approximately 5 males per well (on occasion 1 or 2 females might also be present) of a 24-well plate (Corning Costar 3524). […] The next morning, a final concentration of 100 nM compound (in 1 μL DMSO) was added to each well and the final volume made up to 2 ml with Basch 169 medium supplemented with antibiotics and FBS. Each compound was tested in triplicate (except for some instances tested in duplicate). […] The phenotypic characterisation of compound effects focused on male worms due to the greater range of their motility characteristics that include flexing, bending, stretching, sucker walking and adherence, compared to the more sedentary female worms. In addition to descriptors, WormAssay, as adapted for the schistosome, was used to measure average worm motility per well [72, 73].

[5] = system: Adult S. haematobium worms; experiment: In vitro screening of S. haematobium adults at 100 nM (WormAssay motility, descriptors, severity score); assay type: cell-based, Schistosoma haematobium
Description: as §4

[6] = system: Juvenile S. mansoni worms; experiment: S. mansoni juvenile worm screen (motility score, propidium iodide uptake), 72 h; assay type: cell-based, Schistosoma mansoni; conditions: juvenile worms, positive controls at 15 μM, Fig. S4
From the text: as §1
Juvenile worms were distributed in a 96-well tissue culture plate (n = 20–25 individuals/well) containing 200 μl/well. Compounds were added to each treatment well at a concentration range of 10–0.156 μM. Negative (1.25% DMSO) and positive (15 μM PZQ and 15 μM AUR in 1.25% DMSO) controls were also included in each drug screen. Treated juvenile worms were incubated for 72 h in a humidified environment containing 5% CO2 at 37 °C. Compound-induced phenotype and motility effects were quantified using an adapted version of the WHO-TDR scoring system (in summary: 0 = dead, 1 = movement of the suckers only and slight contraction of the body, 2 = movement at the anterior and posterior regions only, 3 = full body movement but sluggish and 4 = normal movement). Additionally, differential uptake of propidium iodide (PI, P1304MP, Sigma-Aldrich, UK) was used to quantify worm viability as previously described. In brief, after 15 min incubation with 2 μg/ml PI, the parasite cultures were imaged under both bright-field and fluorescent settings (PI detection, 562 and 624 excitation and emission wavelengths, respectively) using an ImageXpressXL high content imager (Molecular Devices, UK). Enumeration of PI positive and negative juvenile worms was manually performed across all parasites within the well and the percentage of PI positive parasite was calculated per well.

[7] = system: S. mansoni adult worms; experiment: In vitro laid egg (IVLE) production by S. mansoni adult worm pairs, 72 h; assay type: cell-based, Schistosoma mansoni
Description: as §2

[8] = HepG2 MTT cytotoxicity assay; conditions: human, HepG2 cells
Description: as §3

[9] = Schistosoma mansoni, 72 h, Table 2, average of phenotype and motility EC50, 72 h, read-out: Activity on schistosomula (EC50, μM - 72 h) Average
[10] = Schistosoma mansoni, 72 h, Table 2, motility, 72 h, three replicate titrations (0.313–10 μM), read-out: Activity on schistosomula (EC50, μM - 72 h) M
[11] = Schistosoma mansoni, 72 h, Table 2, phenotype, 72 h, three replicate titrations (0.313–10 μM), read-out: Activity on schistosomula (EC50, μM - 72 h) P
[12] = Schistosoma mansoni, Table 4, Series A, read-out: Anti-schistosomal activity EC50 Schistosomula (μM) Motility
[13] = Schistosoma mansoni, Table 4, Series A, read-out: Anti-schistosomal activity EC50 Schistosomula (μM) Phenotype
[14] = Table 4, Series A, read-out: Anti-schistosomal activity EC50 Adult (nM) Motility
[15] = Table 2, 72 h, titrations 0.0095–5 μM, WormassayGP2, read-out: Activity on adult worms (EC50, μM - 72 h) Motility
[16] = Schistosoma mansoni, 72 h, Table 1, 72 h, two dose response titrations (0.313–10 μM), 95% CI in brackets, read-out: Activity on schistosomula (EC50, μM - 72 h) Motility
[17] = Schistosoma mansoni, 72 h, Table 1, 72 h, two dose response titrations (0.313–10 μM), 95% CI in brackets, read-out: Activity on schistosomula (EC50, μM - 72 h) Phenotype
[18] = Schistosoma mansoni, 72 h, Table 1, mean of phenotype and motility EC50, 72 h, read-out: Activity on schistosomula (EC50, μM - 72 h) Average

SMILES	EC50 [1, 9] [µM]	EC50 [1, 10] [µM]	EC50 [1, 11] [µM]	EC50 [1, 12] [µM]	EC50 [1, 13] [µM]	EC50 [2, 14] [nM]	EC50 [2, 15] [nM]	Selectivity Index (SI) Adult worms [3]	Selectivity Index (SI) Somula [3]	EC50 [1, 16] [µM]	EC50 [1, 17] [µM]	EC50 [1, 18] [µM]	PI pos [6] [%]	other results
O=[N+]([O-])c1ccc2nc(Nc3cccc(C(F)(F)F)c3)c(Nc3cccc(C(F)(F)F)c3)nc2c1 [Compound 30, 6-nitro-N2, N3-bis(3-(trifluoromethyl)phenyl)quinoxaline-2,3-diamine]	0.38	0.43	0.34	0.43	0.34	2.59	2.59	348 and 347.59	2.36					Effect on S. japonicum adult male worms ([4]; 5, 24, 48 and 72 h): decreased motility starting at 48 h; SEVERITY SCORES 5 h ([4]; S. japonicum, 5 h, max = 4, one line per replicate): 0; SEVERITY SCORES 24 h ([4]; S. japonicum, 24 h, max = 4, one line per replicate): 0; SEVERITY SCORES 48 h ([4]; S. japonicum, 48 h, max = 4, one line per replicate): 2 and 1; DESCRIPTORS 48 h ([4]; S. japonicum, 48 h, one line per replicate): S, on sides and S; SEVERITY SCORES 72 h ([4]; S. japonicum, 72 h, max = 4, one line per replicate): 2 and 1; DESCRIPTORS 72 h ([4]; S. japonicum, 72 h, one line per replicate): S, on sides and S+; Effect on S. haematobium adult worms ([5]; 5, 24, 48 and 72 h): relatively mild effects; SEVERITY SCORES 5 h ([5]; S. haematobium, 5 h, max = 4, one line per replicate): 0; SEVERITY SCORES 24 h ([5]; S. haematobium, 24 h, max = 4, one line per replicate): 0; SEVERITY SCORES 48 h ([5]; S. haematobium, 48 h, max = 4, one line per replicate): 1 and 2; DESCRIPTORS 48 h ([5]; S. haematobium, 48 h, one line per replicate): S-unc, on sides; SEVERITY SCORES 72 h ([5]; S. haematobium, 72 h, max = 4, one line per replicate): 2; DESCRIPTORS 72 h ([5]; S. haematobium, 72 h, one line per replicate): S-unc, on sides
O=C(C1CCCCC1)N1CC(=O)N2CCc3ccccc3C2C1 (stereo not drawn) [PZQ, praziquantel, reference compound]	1.01	0.88	1.14				107	945.31	100.05	0.88	1.14	1.01	100	
c1ccc(/N=c2\sc3ccccc3s\c2=N\c2ccccc2)cc1 [Compound 1]										4.47	4.72	4.59		Activity on schistosomula in the primary screen at 10 μM ([1]; 10 μM, 72 h): hit; Activity on schistosomula in the primary screen at 50 μM ([1]; 50 μM, 72 h): hit; EC50 ([1]; Schistosoma mansoni, Fig. S3, average schistosomula EC50, read-out: EC50 (Fig. S3, anti-schistosomula activity)): 4.41 µM; Concentration down to which activity on schistosomula was retained ([1]; dose-response titration, 72 h): 5 µM; Adult worm motility at 6.25 μM ([2]; 6.25 μM, 72 h): normal motility; Effect on adult male and female worm pairs at 50 and 25 μM ([2]; 50 and 25 μM, 72 h): lethal effect; Concentration up until which production of in vitro laid eggs (IVLEs) was significantly inhibited ([7]; titration 50–6.25 μM): 12.5 µM
O=[N+]([O-])c1ccc2nc(-c3ccc(F)cc3)c(-c3ccc(F)cc3)nc2c1 [Compound 21]										> 50	> 50			Effect on phenotype and motility of S. mansoni schistosomula ([1]; primary tested concentrations 10 and 50 μM, 72 h): did not have any effect; CC50 at 24 h [8]: 6 to 20 µM
CC(=O)OC[C@H]1O[C@@H]([S-])[C@H](OC(C)=O)[C@@H](OC(C)=O)[C@@H]1OC(C)=O.CCP(CC)CC.[Au+] [AUR, Auranofin, reference compound]													0	EC50 ([1]; Table 1, 72 h, two dose response titrations (0.313–10 μM), 95% CI in brackets, read-out: Activity on schistosomula (EC50, μM - 72 h) Motility): 0.45 µM; EC50 ([1]; Table 1, mean of phenotype and motility EC50, 72 h, read-out: Activity on schistosomula (EC50, μM - 72 h) Average): 0.41 µM; EC50 ([1]; Table 2, average of phenotype and motility EC50, 72 h, read-out: Activity on schistosomula (EC50, μM - 72 h) Average): 0.41 µM; EC50 ([1]; Table 2, motility, 72 h, three replicate titrations (0.313–10 μM), read-out: Activity on schistosomula (EC50, μM - 72 h) M): 0.45 µM; EC50 ([1]; Table 2, phenotype, 72 h, three replicate titrations (0.313–10 μM), read-out: Activity on schistosomula (EC50, μM - 72 h) P): 0.37 µM; CC50 ([3]; read-out: HepG2 cells (CC50, μM) 24 h, 24 h co-incubation): 5.07 µM; CC50 ([3]; read-out: HepG2 cells (CC50, μM) 72 h, 72 h co-incubation): 2.94 µM
O=[N+]([O-])c1ccc2nc(Nc3cc(F)cc(C(F)(F)F)c3)c(Nc3cc(F)cc(C(F)(F)F)c3)nc2c1 [Compound 34, N2, N3-bis(3-fluoro-5-(trifluoromethyl)phenyl)-6-nitroquinoxaline-2,3-diamine]	0.4	0.43	0.37	0.43	0.37	6.47	6.47							Effect on IVLE production compared with PZQ ([7]; 0.0024–10 μM): more potent than PZQ
